Reference: PubChem BioAssay (NCI)
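All cell lines were grown in 96-well plates and treated with compound for 48 hours. TGI is the concentration that stops growth completely.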

Key:
Assay in all cases: NCI tumour cell line growth inhibition, 48 h
[1] = test system: EKVX NSCLC
[2] = test system: SK-MEL-2 melanoma
[3] = test system: SNB-19 CNS
[4] = test system: HOP-92 NSCLC
[5] = test system: NCI-H226 lung
[6] = test system: SF-295 CNS
[7] = test system: SW-620 colon
[8] = test system: P388/ADR leukemia
[9] = test system: SK-MEL-5 melanoma
[10] = test system: HL-60(TB) leukemia
[11] = test system: OVCAR-4 ovarian
[12] = test system: M19-MEL melanoma
[13] = test system: SK-MEL-28 melanoma
[14] = test system: HCC-2998 colon
[15] = test system: MALME-3M melanoma
[16] = test system: U251 CNS
[17] = test system: MOLT-4 leukemia
[18] = test system: CAKI-1 renal
[19] = test system: SK-OV-3 ovarian
[20] = test system: DMS 114 small cell lung
[21] = test system: LOX IMVI melanoma
[22] = test system: SF-539 CNS
[23] = test system: NCI/ADR-RES ovarian
[24] = test system: RXF 393 renal
[25] = test system: MCF7 breast
[26] = test system: UACC-62 melanoma
[27] = test system: HOP-18 NSCLC
[28] = test system: SNB-75 CNS
[29] = test system: KM12 colon
[30] = test system: A549 NSCLC
[31] = test system: KM20L2 colon
[32] = test system: COLO 205 colon
[33] = test system: K-562 leukemia
[34] = test system: HOP-62 NSCLC
[35] = test system: IGROV1 ovarian
[36] = test system: OVCAR-3 ovarian
[37] = test system: DLD-1 colon
[38] = test system: SN12C renal
[39] = test system: OVCAR-5 ovarian
[40] = test system: CCRF-CEM leukemia
[41] = test system: DMS 273 small cell lung
[42] = test system: SN12K1 renal
[43] = test system: SNB-78 CNS
[44] = test system: HCT-116 colon
[45] = test system: OVCAR-8 ovarian
[46] = test system: NCI-H460 lung
[47] = test system: NCI-H522 lung
[48] = test system: RPMI-8226 leukemia
[49] = test system: A498 renal
[50] = test system: XF 498 CNS
[51] = test system: NCI-H23 lung
[52] = test system: SF-268 CNS
[53] = test system: P388 leukemia
[54] = test system: HCT-15 colon
[55] = test system: UO-31 renal
[56] = test system: HT29 colon
[57] = test system: UACC-257 melanoma
[58] = test system: ACHN renal
[59] = test system: BT-549 breast
[60] = test system: MDA-MB-231 breast
[61] = test system: LXFL 529 NSCLC
[62] = test system: HS 578T breast
[63] = test system: M14 melanoma
[64] = test system: DU-145 prostate
[65] = test system: MDA-MB-435
[66] = test system: TK-10 renal
[67] = test system: MDA-N
[68] = test system: T-47D breast
[69] = test system: PC-3 prostate
[70] = test system: 786-0 renal
[71] = test system: SR leukemia
[72] = test system: RXF-631 renal

Structure (SMILES): Cc1[nH]c(=O)[nH]c(=O)c1/C=C/C(=O)NC(CO)CC(C)C (centres undefined)
- TGI [1]: > 375 µM
- TGI [2]: > 375 µM
- TGI [3]: > 375 µM
- TGI [4]: > 343000 nM
- TGI [5]: > 375 µM
- TGI [6]: > 375 µM
- TGI [7]: > 375 µM
- TGI [8]: > 149 µM
- TGI [9]: > 375 µM
- TGI [10]: > 375000 nM
- TGI [11]: > 375000 nM
- TGI [12]: > 375000 nM
- TGI [13]: > 375 µM
- TGI [14]: > 375 µM
- TGI [15]: > 375000 nM
- TGI [16]: > 375 µM
- TGI [17]: > 211 µM
- TGI [18]: 310 µM
- TGI [19]: > 375 µM
- TGI [20]: > 375 µM
- TGI [21]: > 375 µM
- TGI [22]: > 375 µM
- TGI [23]: > 375 µM
- TGI [24]: > 375 µM
- TGI [25]: > 375 µM
- TGI [26]: > 375 µM
- TGI [27]: > 375000 nM
- TGI [28]: > 375 µM
- TGI [29]: > 375 µM
- TGI [30]: > 375 µM
- TGI [31]: > 237 µM
- TGI [32]: > 375000 nM
- TGI [33]: > 237000 nM
- TGI [34]: > 375 µM
- TGI [35]: > 375 µM
- TGI [36]: > 375000 nM
- TGI [37]: > 375000 nM
- TGI [38]: > 375000 nM
- TGI [39]: > 375 µM
- TGI [40]: > 375000 nM
- TGI [41]: > 375 µM
- TGI [42]: > 375 µM
- TGI [43]: > 375 µM
- TGI [44]: > 375000 nM
- TGI [45]: > 237000 nM
- TGI [46]: > 187 µM
- TGI [47]: > 375 µM
- TGI [48]: > 375000 nM
- TGI [49]: > 375 µM
- TGI [50]: > 346000 nM
- TGI [51]: > 375 µM
- TGI [52]: > 375 µM
- TGI [53]: > 375 µM
- TGI [54]: > 375000 nM
- TGI [55]: > 375 µM
- TGI [56]: > 375 µM
- TGI [57]: > 375000 nM

Structure (SMILES): C[N+](C)(C)CC1CCCC(C[N+](C)(C)C)C1=O (centres undefined)
- TGI [1]: 3.95 µM
- TGI [58]: 1820 nM
- TGI [59]: 3.09 µM
- TGI [2]: 3.29 µM
- TGI [3]: 38 µM
- TGI [4]: 1170 nM
- TGI [5]: 31.4 µM
- TGI [6]: 45.6 µM
- TGI [60]: 3.58 µM
- TGI [9]: 10.5 µM
- TGI [10]: 2220 nM
- TGI [11]: 871 nM
- TGI [12]: 2330 nM
- TGI [13]: 3.75 µM
- TGI [61]: 392 nM
- TGI [14]: 8.63 µM
- TGI [15]: 487 nM
- TGI [16]: 10.3 µM
- TGI [17]: 3.85 µM
- TGI [18]: 1.48 µM
- TGI [62]: 33.6 µM
- TGI [19]: 26 µM
- TGI [20]: 3.49 µM
- TGI [63]: 2370 nM
- TGI [21]: 3.09 µM
- TGI [22]: 8.8 µM
- TGI [23]: 7.27 µM
- TGI [24]: 3.18 µM
- TGI [26]: 10.9 µM
- TGI [27]: 1000 nM
- TGI [28]: 14.5 µM
- TGI [29]: 12.5 µM
- TGI [30]: 40.6 µM
- TGI [31]: 5.5 µM
- TGI [64]: 16.7 µM
- TGI [65]: 3.43 µM
- TGI [32]: 923 nM
- TGI [33]: 2580 nM
- TGI [34]: 43.3 µM
- TGI [35]: 11.5 µM
- TGI [36]: 1360 nM
- TGI [66]: 4 µM
- TGI [37]: 386 nM
- TGI [38]: 1500 nM
- TGI [39]: 7.73 µM
- TGI [40]: 1280 nM
- TGI [41]: 10.1 µM
- TGI [67]: 9.44 µM
- TGI [43]: 5.88 µM
- TGI [44]: 2230 nM
- TGI [45]: 1150 nM
- TGI [46]: 39.2 µM
- TGI [68]: 3.33 µM
- TGI [47]: 53.2 µM
- TGI [69]: 10.3 µM
- TGI [70]: 2380 nM
- TGI [48]: 256 nM
- TGI [49]: 20.2 µM
- TGI [50]: 898 nM
- TGI [51]: 5.84 µM
- TGI [52]: 55.9 µM
- TGI [71]: 479 nM
- TGI [54]: 874 nM
- TGI [55]: 7.68 µM
- TGI [56]: 14.2 µM
- TGI [72]: 47.4 µM
- TGI [57]: 1480 nM
